The term EC50 denotes the midpoint of the concentration-response curve. One may read the Cmax as the peak of the concentration-time curve.

Results on 15 compounds are retold here after patent US11667629B2, “Isoxazole derivative, preparation method therefor, and use thereof” (SICHUAN KELUN-BIOTECH BIOPHARMACEUTICAL CO., LTD., priority 2017, dated 2023).

Series [1] addresses T1, FXR (Homo sapiens, UniProt Q96RI1).
T1 construct: purchased Invitrogen
Kind of series: Bile acid receptor FXR coactivator binding assay (LanthaScreen TR-FRET). The series is classed as biochemical. The note with it: for EC50: TR-FRET coactivator assay, four-parameter fit, read-out: EC50 of the compounds on FXR; for Emax: read-out: Relative activation effect. How it is done:
The Invitrogen⋅LanthaScreen™ TR-FRET Farnesoid X Receptor Coactivator Assay kit was employed to determine the activation effect of the compounds on FXR.
After the receptor was incubated with the test compound at various concentrations at room temperature, the fluorescent-labeled coactivator short peptides and terbium-labeled antibody were added, and the FRET signal was detected after the reaction was complete at room temperature. The group without the receptor protein was employed as a blank, the activation effect (EC50) and maximum activation effect signal value (Emax) of the test compounds on FXR were calculated according to the four-parameter fitting equation: y=E min+(E max−E min)/(1+(x/EC50)^(−Hillslope))
(Time-resolved FRET reads energy transfer from a long-lived donor to a nearby acceptor.)

Series [2] has as its target T2, FXR (Homo sapiens, UniProt Q96RI1).
T2 construct: expressed in transfected cells; host or cells: HEK293
T2 sequence (Q96RI1 1-486): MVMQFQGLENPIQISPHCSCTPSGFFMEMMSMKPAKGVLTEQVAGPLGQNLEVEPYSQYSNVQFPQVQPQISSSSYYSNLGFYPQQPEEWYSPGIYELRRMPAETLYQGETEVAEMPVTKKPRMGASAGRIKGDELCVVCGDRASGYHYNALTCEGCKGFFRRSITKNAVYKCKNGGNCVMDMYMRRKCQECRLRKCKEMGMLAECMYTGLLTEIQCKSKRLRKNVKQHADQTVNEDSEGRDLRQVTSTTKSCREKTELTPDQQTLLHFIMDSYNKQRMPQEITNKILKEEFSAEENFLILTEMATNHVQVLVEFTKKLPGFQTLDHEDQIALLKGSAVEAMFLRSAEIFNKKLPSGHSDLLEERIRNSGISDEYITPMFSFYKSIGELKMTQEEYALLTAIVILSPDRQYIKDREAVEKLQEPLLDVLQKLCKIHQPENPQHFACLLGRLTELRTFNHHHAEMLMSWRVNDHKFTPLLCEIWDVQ
Briefly: Luciferase reporter gene assay (HEK293 cotransfected with FXR and human BSEP luciferase reporter). The series is classed as cell-based. Conditions: for EC50: HEK293, 18 hours incubation; for Emax: HEK293, maximum activation effect, relative signal percentage, blank well = 100%. How it is done: Human embryonic kidney cells HEK293 were cultured in a DMEM medium containing 10% FBS. Plasmids were cotransfected to allow the cells to have over expression of FXR and human BSEP luciferase reporter genes. The transfected cells were digested, resuspended, counted, and plated in a multi-well plate. 10 μL of the test compound at various concentrations was added to the multi-well plate to result in final concentrations of 64 μM, 16 μM, 4 μM, 1 μM, 0.25 μM, 0.0625 μM, 0.0156 μM, 0.0039 μM, 0.000975 μM, 0.000244 μM, 0 μM, and the final concentration of DMSO was 0.5%. After the test compound was incubated with the cells for 18 hours, the Brigh-Glo™ detection reagent was added, and the chemical light unit value (RLU) was detected by a multifunctional automatic microplate reader. Taking the signal value of the blank well (without the test compound) as 100%, the relative signal percentage (%) at each concentration of the test compound was calculated. The SigmaPlot 10 software was employed to fit the EC50 and the maximum activation effect Emax (relative signal percentage) of the test compounds using a four-parameter model.
On the technique in general: Reporter assays use an easily measured gene product as a stand-in for the process of interest.

Series [3] in a line: Pharmacokinetics (PK) and liver tissue distribution in rats. The series is classed as in vivo, rat. On the procedure:
The test compound was administered to male SD rats by intravenous (IV) and by gavage (PO), and the pharmacokinetics and liver tissue distribution characteristics of the test compound were evaluated. The doses of the IV and PO administration were respectively 1 mg/kg and 5 mg/kg. The vehicle for IV was 5% DMSO:5% Solutol:90% physiological saline, and the vehicle for PO was 0.5% MC. Blood and liver were collected at various time points after the IV and PO administration. The blood was treated with EDTA. K2 for anticoagulation, and was centrifuged to obtain a plasma sample; the liver was homogenized and stored at −80° C. The plasma and liver samples were analyzed by LC-MS/MS after being subjected to protein precipitation.
By employing the WinNonlin 6.3 software, the pharmacokinetic parameters were calculated according to a non-compartment model.

[4] abbreviates: IV, 1 mg/kg, male SD rats, plasma.
[5] abbreviates: PO, 5 mg/kg, male SD rats, blood.
Setting [6] is: PO, 5 mg/kg, male SD rats, liver.

Consider `O=C(O)c1ccc(-c2csc(N3[C@@H]4CC[C@H]3C[C@@H](OCc3c(-c5ccccc5OC(F)(F)F)noc3C3CC3)C4)n2)c(C(F)(F)F)c1` [Compound C45, 4-(2-((1R,3r,5S)-3-((5-cyclopropyl-3-(2-(trifluoromethoxy)phenyl)isoxazol-4-yl)methoxy)-8-azabicyclo[3.2.1]octan-8-yl)thiazol-4-yl)-3-(trifluoromethyl)benzoic acid], for which, on FXR [1], the EC50 turned out to be 110 ± 21 nM and the Emax was determined as 113%.
As for `Cn1nc(C(=O)O)cc1-c1ccc(N2CCC(OCc3c(-c4c(Cl)cccc4Cl)noc3C3CC3)CC2)cc1` [Compound C3, 5-(4-(4-((5-cyclopropyl-3-(2,6-dichlorophenyl)isoxazol-4-yl)methoxy)piperidin-1-yl)phenyl)-1-methyl-1H-pyrazole-3-carboxylic acid], the EC50 at FXR [1] came out at 42 ± 7 nM.
For the compound `O=C(O)c1cccc(-c2csc(N3CCC(OCc4c(-c5c(Cl)cccc5Cl)noc4C4CC4)CC3)n2)c1` [Compound C1, 3-(2-(4-((5-cyclopropyl-3-(2,6-dichlorophenyl)isoxazol-4-yl)methoxy)piperidin-1-yl)thiazol-4-yl)benzoic acid], the EC50 on FXR [1] was found to be 178 ± 21 nM.
Regarding `O=C(O)c1ccc(-c2csc(N3[C@@H]4CC[C@H]3C[C@@H](OCc3c(-c5ccccc5OC(F)(F)F)noc3C3CC3)C4)n2)s1` [Compound C35, 5-(2-((1R,3r,5S)-3-((5-cyclopropyl-3-(2-(trifluoromethoxy)phenyl)isoxazol-4-yl)methoxy)-8-azabicyclo[3.2.1]octan-8-yl)thiazol-4-yl)thiophene-2-carboxylic acid], the EC50 at FXR [1] turned out to be 13 ± 3 nM; at FXR [2], 91 ± 38 nM. Also, the Emax on FXR [1] was 152%; at FXR [2] it was 378%.
At FXR [2], `O=C(O)c1ccc(-c2csc(N3[C@@H]4CC[C@H]3C[C@@H](OCc3c(-c5ccccc5OC(F)(F)F)noc3C3CC3)C4)n2)cc1` [Compound C41, 4-(2-((1R,3r,5S)-3-((5-cyclopropyl-3-(2-(trifluoromethoxy)phenyl)isoxazol-4-yl)methoxy)-8-azabicyclo[3.2.1]octan-8-yl)thiazol-4-yl)benzoic acid] displayed an EC50 of 58 ± 23 nM and an Emax of 252%.
In the case of `Cc1cc(C(=O)O)ccc1-c1csc(N2[C@@H]3CC[C@H]2C[C@@H](OCc2c(-c4c(Cl)cccc4Cl)noc2C2CC2)C3)n1` [Compound C37, 4-(2-((1R,3r,5S)-3-((5-cyclopropyl-3-(2,6-dichlorophenyl)isoxazol-4-yl)methoxy)-8-azabicyclo[3.2.1]octan-8-yl)thiazol-4-yl)-3-methylbenzoic acid], at FXR [1], the EC50 was 15 ± 1 nM and the Emax was found to be 139%. At FXR [2], the EC50 turned out to be 6 ± 2 nM and the Emax amounted to 411%.
On FXR [2], `Cc1cc(C(=O)O)ccc1-c1csc(N2[C@@H]3CC[C@H]2C[C@@H](OCc2c(-c4ccccc4OC(F)(F)F)noc2C2CC2)C3)n1` [Compound C42, 4-(2-((1R,3r,5S)-3-((5-cyclopropyl-3-(2-(trifluoromethoxy)phenyl)isoxazol-4-yl)methoxy)-8-azabicyclo[3.2.1]octan-8-yl)thiazol-4-yl)-3-methylbenzoic acid] registered an EC50 of 33 ± 18 nM and an Emax of 320%.
Turning to `O=C(O)c1ccc(-c2csc(N3[C@@H]4CC[C@H]3C[C@@H](OCc3c(-c5ccccc5OC(F)(F)F)noc3C3CC3)C4)n2)cc1F` [Compound C44, 4-(2-((1R,3r,5S)-3-((5-cyclopropyl-3-(2-(trifluoromethoxy)phenyl)isoxazol-4-yl)methoxy)-8-azabicyclo[3.2.1]octan-8-yl)thiazol-4-yl)-2-fluorobenzoic acid], on FXR [1], the EC50 turned out to be 22 ± 5 nM and the Emax came out at 137%. On FXR [2], this compound gave a 50% effective concentration (EC50) of 21 ± 6 nM and an Emax of 322%.
For the compound `O=C(O)c1ccc(-c2csc(N3[C@@H]4CC[C@H]3C[C@@H](OCc3c(-c5ccccc5OC(F)(F)F)noc3C3CC3)C4)n2)c(F)c1` [Compound C43, 4-(2-((1R,3r,5S)-3-((5-cyclopropyl-3-(2-(trifluoromethoxy)phenyl)isoxazol-4-yl)methoxy)-8-azabicyclo[3.2.1]octan-8-yl)thiazol-4-yl)-3-fluorobenzoic acid], at FXR [2], the EC50 was 37 ± 19 nM and the Emax is 343%.
The corresponding values for `O=C(O)c1csc(-c2csc(N3[C@@H]4CC[C@H]3C[C@@H](OCc3c(-c5ccccc5OC(F)(F)F)noc3C3CC3)C4)n2)c1` [Compound C48, 5-(2-((1R,3r,5S)-3-((5-cyclopropyl-3-(2-(trifluoromethoxy)phenyl)isoxazol-4-yl)methoxy)-8-azabicyclo[3.2.1]octan-8-yl)thiazol-4-yl)thiophene-3-carboxylic acid] are 39 ± 17 nM and 382%.
As to `O=C(O)c1ccc(-c2csc(N3[C@@H]4CC[C@H]3C[C@@H](OCc3c(-c5ccccc5OC(F)(F)F)noc3C3CC3)C4)n2)cn1` [Compound C50, 5-(2-((1R,3r,5S)-3-((5-cyclopropyl-3-(2-(trifluoromethoxy)phenyl)isoxazol-4-yl)methoxy)-8-azabicyclo[3.2.1]octan-8-yl)thiazol-4-yl)picolinic acid], at FXR [1], the half-maximal effective concentration (EC50) worked out at 31 ± 8 nM and the Emax amounted to 177%.
As to `O=C(O)c1cc(-c2csc(N3[C@@H]4CC[C@H]3C[C@@H](OCc3c(-c5ccccc5OC(F)(F)F)noc3C3CC3)C4)n2)cs1` [Compound C47, 4-(2-((1R,3r,5S)-3-((5-cyclopropyl-3-(2-(trifluoromethoxy)phenyl)isoxazol-4-yl)methoxy)-8-azabicyclo[3.2.1]octan-8-yl)thiazol-4-yl)thiophene-2-carboxylic acid], at FXR [2], the response was half-maximal at 19 ± 7 nM (EC50) and the Emax came to 370%.
In the case of `Cn1nc(-c2ccc(N3CCC(OCc4c(-c5c(Cl)cccc5Cl)noc4C4CC4)CC3)cc2)cc1C(=O)O` [Compound C4, 3-(4-(4-((5-cyclopropyl-3-(2,6-dichlorophenyl)isoxazol-4-yl)methoxy)piperidin-1-yl)phenyl)-1-methyl-1H-pyrazole-5-carboxylic acid], the 50% effective concentration (EC50) amounted to 10 ± 1 nM on FXR [1] and 40 ± 10 nM at FXR [2]. For the same compound, the Emax worked out at 102% at FXR [1] and 255% at FXR [2].
As for `Cn1nc(C(=O)O)cc1-c1cccc(N2CCC(OCc3c(-c4c(Cl)cccc4Cl)noc3C3CC3)CC2)c1` [Compound C6, 5-(3-(4-((5-cyclopropyl-3-(2,6-dichlorophenyl)isoxazol-4-yl)methoxy)piperidin-1-yl)phenyl)-1-methyl-1H-pyrazole-3-carboxylic acid], the EC50 on FXR [1] turned out to be 206 ± 18 nM.
As to `O=C(O)c1ccc(-c2csc(N3CCC(OCc4c(-c5c(Cl)cccc5Cl)noc4C4CC4)CC3)n2)cc1` [Compound C2, 4-(2-(4-((5-cyclopropyl-3-(2,6-dichlorophenyl)isoxazol-4-yl)methoxy)piperidin-1-yl)thiazol-4-yl)benzoic acid], on FXR [1], the EC50 was 12 ± 4 nM and the Emax turned out to be 101%. At FXR [2], this compound showed an EC50 of 20 ± 10 nM and an Emax of 248%. In series [3] (setting [4]), the AUClast was determined as 2409 ± 108 ng·h/mL and the Cmax was 4343 ± 172 ng/mL. Besides, in series [3] (setting [5]), the “AUClast (blood)” value was determined as 1177 ± 304 ng·h/mL and the “Cmax (blood)” value came to 252 ± 30 ng/mL. Besides, in series [3] (setting [6]), the “AUClast (liver)” value amounted to 14941 ± 4276 ng·h/g and the “Cmax (liver)” value turned out to be 3367 ± 830 ng/g. The liver enrichment result in series [3] (PO, 5 mg/kg, rats, liver versus blood exposure) is reported as “significant liver enrichment effect”.
